Read-outs that look alike come from different tables or passages of the source.
Assays:
[1] = test system: ABIL (ammonia-binding liquid inoculum), nitrifying microbial enrichment containing both AOA and AOB; assay: Nitrification inhibition assay on ABIL (ammonium consumption); format: cell-based
[2] = test system: Nitrososphaera viennensis; assay: Nitrification inhibition assay on Nitrososphaera viennensis (nitrite, Griess); format: cell-based, Nitrososphaera viennensis EN76T; settings: for activity at 2.5 µM: Nitrososphaera viennensis, 2.5 µM compound, structural variants outside formula (I), read-out: Relative nitrification (%) by Nitrososphaera viennensis treated with 2.5 µM compound
Description: Nitrite (NO2—) was measured using the Griess reagent (Product number: G4410, Griess reagent (modified), Sigma-Aldrich). Equal volumes of the sample or a diluted sample and the Griess reagent were mixed a transparent flat bottom multi-well plate and incubated in the dark at room temperature for 10 minutes. Absorbance values at 540 nm were measured spectrophotometrically (EnVision, Perkin Elmer®) and used to calculate the [NO2—] by use of a standard curve.
A liquid culture sample of Nitrososphaera viennensis EN76T was kindly supplied by prof. dr. Christa Schleper (University of Vienna). Cells were grown in fresh water medium (FWM) as described earlier by Tourna et al. (2011). All necessary materials were rinsed with 1 % HCl and washed at least 3 times with MilliQ water. FWM (pH 7.5 (KOH)) contained 17 mM NaCl, 3 mM MgCl2 × 2 H2O, 680 µM CaCl2 × 2 H2O, 1.47 mM KH2PO4 and 6.71 mM KCI. After autoclaving, successively 1 mL non-chelated trace element mixture (101 mM HCl, 488 µM H3BO3, 508 µM MnCl2 × 4 H2O, 803 µM CoCl2 × 6 H2O, 101 µM NiCl2 × 6 H2O, 12 µM CuCl2 × 2 H2O, 503 µM ZnSO4 × 7 H2O and 150 µM Na2MoO4 × 2 H2O), 1 mL Fe-NaEDTA (7.5 mM), 1 mL vitamin solution (20 mg/L biotin, 20 mg/L folic acid, 100 mg/L pyridoxine-HCl, 50 mg/L thiamine-HCl, 50 mg/L riboflavin, 50 mg/L nicotinic acid, 50 mg/L DL-pantothenic acid, 50 mg/L P-aminobenzoic acid, 2 g/L choline chloride and 10 mg/L vitamin B12), 2 mL NaHCO3 (1 M), 2 mL kanamycin (100 mg/mL), 2 mL carbenicillin (100 mg/mL), 3 mL NH4Cl (1 M), 10 mL HEPES buffer (1 M, pH 7.6) and 1 mL Na-pyruvate (0.1 M) were added aseptically. All stock-solutions were filter-sterilized, except the autoclaved non-chelated trace element mixture. Cultures were incubated aerobically at 42° C. without shaking in sterile 250-mL Erlenmeyer flasks or 30-mL cultivation tubes (Product number: 216-1290, Quickstart universal containers STERILIN®, VWR) filled with either 100 or 20 mL FWM and sealed with tape (Micropore™ Surgical Tape 1530-1, 3M™). Late-log phase cultures ([NO2-] ≥ 1 mM) were subcultivated by dilution (1:400) in fresh FWM.
7-day old 100 mL cultures grown in 250-mL Erlenmeyer flasks with a [NO2-] ≥ 1 mM were 5 times overconcentrated in fresh FWM by centrifugation (4000 rpm, 15 min, 5° C.) in 50 mL centrifuge tubes (Cat. No. 430829, CentriStar™ Conical Centrifuge Tubes, Corning®). Per batch, all the cultures were pooled in one sterile Schott bottle. Subsequently, 200 µl/well was dispensed at low pipetting speed in transparent flat bottom 96-well plates (Cat. No. 353072, Falcon® 96 Well Clear Microplate, Corning®) using 150 µl wide-bore tips (two steps of 100 µl) on a Tecan robot (Freedom EVO®, Tecan). 0.5 µl of 99.99 % DMSO (negative control - final concentration 0.25%) and 0.5 µl of 0.04 M PTIO (2-phenyl-4,4,5,5-tetramethylimidazoline-1-oxyl 3-oxide, positive control - final concentration 100 µM) were added manually to the first and last column respectively. Finally, 0.5 µl of candidate nitrification inhibitors (1 mM stock solutions in 99.99% DMSO - final concentration 2.5 µM) were added to the central wells using a pin tool on a Tecan robot (Freedom EVO®, Tecan). In between additions, the pins were washed in sequence with 99.5% DMSO, MilliQ water and 100% ethanol and air-dried. All plates were sealed with tape (Micropore™ Surgical Tape 1530-1, 3M™), stacked per 4 on top of a 96-well plate filled with 100 µl MilliQ per well and covered with aluminum foil. Position effects of the stacks within the incubator were considered. Plates were incubated at 42° C. without shaking. 24 h later, NO2— was measured spectrophotometrically at 540 nm (EnVision, Perkin Elmer®). […]

[3] = 10 µM compound, structural variants outside formula (I), read-out: Relative nitrification (%) by ABIL treated with 10 µM compound
[4] = 24 h, 10 µM compound, 24 h, 0% = as strong as 100 µM PTIO, 100% = no inhibition, read-out: ABIL - relative nitrification (%) at 10 µM

`CC(C)n1ncc2ccc(NC(=O)NC3CCN(C)C3=O)cc21` (centres unmarked) [Example 140] was tested, and the activity at 10 µM [1, 3] was 100% and the activity at 2.5 µM [2] was 100%.

Work on `CC1CCCCN1C(=O)c1n[nH]c2ccccc12` (centres unmarked) [Example 156] yielded an activity at 10 µM [1, 3] of 100% and an activity at 2.5 µM [2] of 100%.

`O=C(c1n[nH]c2ccccc12)N1CCc2ccc(F)cc21` [Example 141] showed an activity at 10 µM [1, 3] of 100% and an activity at 2.5 µM [2] of 93%.

For `C=CCNC(=O)c1cnc2c(cnn2C(C)C)c1` [Example 89], the activity at 10 µM [1, 3] was 100% and the activity at 2.5 µM [2] was 100%.

Molecule `Cc1cc(C)c2c(OCC(=O)N(CC(F)F)C3CC3)nn(C)c2n1` [Example 67] has an activity at 10 µM [1, 3] of 100% and an activity at 2.5 µM [2] of 100%.

In the case of `CC1(C)N([O])C(c2ccccc2)=[N+]([O-])C1(C)C` [PTIO, 2-phenyl-4,4,5,5-tetramethylimidazoline-1-oxyl 3-oxide], the “inhibition in the ABIL assay” value ([1]; PTIO at 33 µM) was “does not show inhibition anymore” and the “inhibition in the N. viennensis assay” value ([2]; PTIO at 25 µM) was “does not show inhibition anymore”.

`CC(C)c1cc(C(=O)NCC2CCCO2)c2cnn(C(C)C)c2n1` (centres unmarked) [Example 13] was tested, and the “ABIL - relative nitrification (%) at 10 µM” value ([1]; 10 µM compound, 24 h, 0% = as strong as 100 µM PTIO, 100% = no inhibition) was 49%.

Work on `CCOc1cc(C(=O)Nc2cnc3c(cnn3C(C)C)c2)c([N+](=O)[O-])cc1OC` [Example 73] yielded an activity at 10 µM [1, 3] of 100% and an activity at 2.5 µM [2] of 93%.

`CC(CNC(=O)c1cccc2cn[nH]c12)CC1(C)OCCO1` (centres unmarked) [Example 143] gave an activity at 10 µM [1, 3] of 100% and an activity at 2.5 µM [2] of 100%.

With `CSCC(=O)Nc1ccc2[nH]ncc2c1` [Example 126] the activity at 10 µM [1, 3] was 100% and the activity at 2.5 µM [2] was 100%.

In the case of `Cc1ccccc1OCCN(C)C(=O)c1n[nH]c2ccccc12` [Example 148], the activity at 10 µM [1, 3] was 100% and the activity at 2.5 µM [2] was 100%.

Molecule `Cc1nc2c(cnn2C(C)C)c(C)c1CCC(=O)NC12CC3CC(CC(C3)C1)C2` [Example 63] has an activity at 10 µM [1, 3] of 100% and an activity at 2.5 µM [2] of 100%.

`CCN(CC1CCOC1)C(=O)c1cc2cnn(C(C)C)c2nc1C` (centres unmarked) [Example 41] was tested, and the activity at 10 µM [1, 3] was 98% and the activity at 2.5 µM [2] was 100%.

Molecule `CC(C)n1ncc2cc(C(=O)NCc3ccccc3S(=O)(=O)N3CCCCC3)cnc21` [Example 81] has an activity at 10 µM [1, 3] of 100% and an activity at 2.5 µM [2] of 100%.

In the case of `Cc1ccc2[nH]nc(C(=O)N3CCS(=O)(=O)C(C)(C)C3)c2c1` [Example 104], the activity at 10 µM [1, 3] was 93% and the activity at 2.5 µM [2] was 100%.

For `CCC(CC)C(CNC(=O)c1n[nH]c2ccccc12)N1CCOCC1` (centres unmarked) [Example 127], the activity at 10 µM [1, 3] was 100% and the activity at 2.5 µM [2] was 100%.

For `COCCN1CCN(Cc2cccc3cn[nH]c23)CC1=O` [Example 164], the activity at 10 µM [1, 3] was 100% and the activity at 2.5 µM [2] was 100%.

`Cc1nn(C)c2nc(C3CC3)cc(C(=O)N(C)CC(=O)Nc3ccc(Cl)c(Cl)c3)c12` [Example 17] showed an activity at 10 µM [1, 4] of 68%.

For `CCn1ncc2c(C(=O)NCC3CCCO3)cc(-c3ccccc3)nc21` (centres unmarked) [Example 9], the “N. viennensis - relative nitrification (%) at 0.5 µM” value ([2]; 0.5 µM compound, 0% = as strong as 100 µM PTIO, 100% = no inhibition) was 100%, the “N. viennensis - relative nitrification (%) at 5 µM” value ([2]; 5 µM compound, 0% = as strong as 100 µM PTIO, 100% = no inhibition) was 100% and the “N. viennensis - relative nitrification (%) at 25 µM” value ([2]; 25 µM compound, 0% = as strong as 100 µM PTIO, 100% = no inhibition) was 54%.

For `Cc1nc2c(c(C)nn2C)c(C)c1CCC(=O)O` [Example 36], the activity at 10 µM [1, 3] was 97% and the activity at 2.5 µM [2] was 94%.

With `Cc1nc2c(c(C)nn2C)c(C)c1CCC(=O)NCC1CCCO1` (centres unmarked) [Example 80] the activity at 10 µM [1, 3] was 100% and the activity at 2.5 µM [2] was 100%.

`COCCC1(C(=O)Nc2cnc3[nH]nc(C)c3c2)CCCC1` [Example 49] was tested, and the activity at 10 µM [1, 3] was 100% and the activity at 2.5 µM [2] was 100%.

Molecule `Cc1nn(C(C)(C)C)c2nc(C3CC3)cc(C(=O)N(C)C)c12` [Example 11] has an activity at 10 µM [1, 4] of 25%.

— patent US20230357099A1, “PYRAZOLO [3,4-B] PYRIDINE-4-CARBOXAMIDE NITRIFICATION INHIBITOR” (EUROCHEM ANTWERPTEN, priority 2020, published 2023)
